Reference: patent US10718778B2, “Compositions and methods for detecting protein sulfenylation” (THE REGENTS OF THE UNIVERSITY OF MICHIGAN, priority 2014, dated 2020)

Columns and labels:
live HEK293T cells = assay: labeling of live HEK293T cells
B-cell hybridomas = assay: ratiometric imaging of sulfenylation in live cells by TIRF microscopy; assay type: cell-based
Description: Next, whether DiNap-1F could be used for ratiometric imaging sulfenylation in live cells by Total Internal Reflectance Fluorescence (TIRF) microscopy was tested.

Compound: Nc1ccc2c3c(cccc13)C(=O)C(F)=C2O [DiNap-1F]
- cell permeability (live HEK293T cells; live mammalian cells): validating cell permeability
- labeling of live mammalian cells (live HEK293T cells; time and concentration dependence): labeled efficiently
- excitation ratio change over time (B-cell hybridomas): clearly elicited a robust excitation ratio change over time
